From patent US20250352520A1, “USE OF DEXPRAMIPEXOLE FOR THE TREATMENT OF EOSINOPHILIC COPD” (Areteia Therapeutics, Inc., priority 2024, published 2025)

Conditions: Week 12; <50% AEC reduction at Week 16

Structure (SMILES): CCCN[C@@H]1CCc2nc(N)sc2C1 [Dexpramipexole, (6R)-2-amino-4,5,6,7-tetrahydro-6-(propylamino)benzothiazole]
- Pre-BD FEF25-75 % change from baseline, Max: 47%
- Pre-BD FEF25-75 % change from baseline, Mean ± SD: 23.9 ± 28.49%
- Pre-BD FEF25-75 % change from baseline, Median: 30.3%
- Pre-BD FEF25-75 % change from baseline, Min: −12%
- Pre-BD FEF25-75 % change from baseline, Q1: 1%
- Pre-BD FEF25-75 % change from baseline, Q3: 47%
- Pre-BD FEF25-75 Observed, Max: 2050 mL/s
- Pre-BD FEF25-75 Observed, Mean ± SD: 857.5 ± 805.29 mL/s
- Pre-BD FEF25-75 Observed, Median: 515.0 mL/s
- Pre-BD FEF25-75 Observed, Min: 350 mL/s
- Pre-BD FEF25-75 Observed, Q1: 370 mL/s
- Pre-BD FEF25-75 Observed, Q3: 1345 mL/s
- Pre-BD FEF25-75 change from baseline, Max: 660 mL/s
- Pre-BD FEF25-75 change from baseline, Mean ± SD: 182.5 ± 329.18 mL/s
- Pre-BD FEF25-75 change from baseline, Median: 80.0 mL/s
- Pre-BD FEF25-75 change from baseline, Min: -90 mL/s
- Pre-BD FEF25-75 change from baseline, Q1: -20 mL/s
- Pre-BD FEF25-75 change from baseline, Q3: 385 mL/s
- Pre-BD FEV1 % change from baseline, Max: 41%
- Pre-BD FEV1 % change from baseline, Mean ± SD: 10.1 ± 21.78%
- Pre-BD FEV1 % change from baseline, Median: 4.2%
- Pre-BD FEV1 % change from baseline, Min: −9%
- Pre-BD FEV1 % change from baseline, Q1: −3%
- Pre-BD FEV1 % change from baseline, Q3: 23%
- Pre-BD FEV1 Observed, Max: 2940 mL
- Pre-BD FEV1 Observed, Mean ± SD: 1672.5 ± 886.84 mL
- Pre-BD FEV1 Observed, Median: 1440.0 mL
- Pre-BD FEV1 Observed, Min: 870 mL
- Pre-BD FEV1 Observed, Q1: 1145 mL
- Pre-BD FEV1 Observed, Q3: 2200 mL
- Pre-BD FEV1 change from baseline, Max: 860 mL
- Pre-BD FEV1 change from baseline, Mean ± SD: 200.0 ± 449.52 mL
- Pre-BD FEV1 change from baseline, Median: 45.0 mL
- Pre-BD FEV1 change from baseline, Min: -150 mL
- Pre-BD FEV1 change from baseline, Q1: -55 mL
- Pre-BD FEV1 change from baseline, Q3: 455 mL
- Pre-BD FVC % change from baseline, Max: 10%
- Pre-BD FVC % change from baseline, Mean ± SD: −3.1 ± 11.75%
- Pre-BD FVC % change from baseline, Median: −2.9%
- Pre-BD FVC % change from baseline, Min: −17%
- Pre-BD FVC % change from baseline, Q1: −12%
- Pre-BD FVC % change from baseline, Q3: 6%
- Pre-BD FVC Observed, Max: 3990 mL
- Pre-BD FVC Observed, Mean ± SD: 2942.5 ± 825.44 mL
- Pre-BD FVC Observed, Median: 2830.0 mL
- Pre-BD FVC Observed, Min: 2120 mL
- Pre-BD FVC Observed, Q1: 2300 mL
- Pre-BD FVC Observed, Q3: 3585 mL
- Pre-BD FVC change from baseline, Max: 370 mL
- Pre-BD FVC change from baseline, Mean ± SD: -52.5 ± 345.68 mL
- Pre-BD FVC change from baseline, Median: -75.0 mL
- Pre-BD FVC change from baseline, Min: -430 mL
- Pre-BD FVC change from baseline, Q1: -320 mL
- Pre-BD FVC change from baseline, Q3: 215 mL
- Pre-BD Peak Flow % change from baseline, Max: 478%
- Pre-BD Peak Flow % change from baseline, Mean ± SD: 121.7 ± 237.65%
- Pre-BD Peak Flow % change from baseline, Median: 12.2%
- Pre-BD Peak Flow % change from baseline, Min: −15%
- Pre-BD Peak Flow % change from baseline, Q1: −5%
- Pre-BD Peak Flow % change from baseline, Q3: 249%
- Pre-BD Peak Flow Observed, Max: 246 L/min
- Pre-BD Peak Flow Observed, Mean ± SD: 204.8 ± 42.39 L/min
- Pre-BD Peak Flow Observed, Median: 210.5 L/min
- Pre-BD Peak Flow Observed, Min: 152 L/min
- Pre-BD Peak Flow Observed, Q1: 171 L/min
- Pre-BD Peak Flow Observed, Q3: 239 L/min
- Pre-BD Peak Flow change from baseline, Max: 191 L/min
- Pre-BD Peak Flow change from baseline, Mean ± SD: 48.3 ± 98.44 L/min
- Pre-BD Peak Flow change from baseline, Median: 18.0 L/min
- Pre-BD Peak Flow change from baseline, Min: -34 L/min
- Pre-BD Peak Flow change from baseline, Q1: -12 L/min
- Pre-BD Peak Flow change from baseline, Q3: 108 L/min
